From US11186583B2, “5-alkylthio-7-[(4-arylbenzyl)amino]-1(2)H-pyrazolo[4,3-d]pyrimidines for treatment of lymphoma” (UNIVERZITA PALACKEHO V OLOMOUCI, priority 2018, dated 2021) come the findings set out here.

What all share (format): cell-based
Assay [1] has as its system MINO (mantle cell lymphoma). The experiment in a line: MTT cytotoxicity assay, MINO lymphoma cell line. As to conditions: Homo sapiens, 72 h, MINO cells, three days, read-out: Lymphoma cell lines GI50, MINO. From the text:
(§1) Cytotoxicity of the compounds is the major property determining their anti-lymphoma efficacy in vitro. One of the parameters used, as the basis for cytotoxicity assays, is the metabolic activity of viable cells. For example 2, a microtiter assay, which uses (3-(4,5-dimethylthiazol-2-yl)-2,5-diphenyltetrazolium bromide (MTT), is widely used to quantitate cell proliferation and cytotoxicity. This assay is widely used in drug screening programs and in chemosensitivity testing. Because only metabolically active living cells reduce MTT to correspond purple formazan dye, these assays detect viable cells exclusively. The quantity of reduced MTT corresponds to the number of vital cells in the culture.
(§2) The compounds were assayed using the following lymphoma cell lines: HT (diffuse large B-cell lymphoma, subtype—germinal center B-cell), OCI-LY2 (diffuse large B-cell lymphoma, subtype—germinal center B-cell), MINO (mantle cell lymphoma). All cell lines were grown in RPMI medium supplemented with fetal bovine serum and glutamine and maintained at 37° C. in a humidified atmosphere with 5% CO2. For cytotoxicity assays, 5000-10000 cells were seeded into each well of 96 well plate, allowed to stabilize for at least 8 h and then tested compounds were added at various concentrations ranging from 100 to 0.01 μM in triplicates. After three days, MTT solution (5 mg/ml; Sigma, St. Louis, USA) was added to cells and medium was replaced with DMSO after five hours. The absorbance was measured at 620 nm by employing a microplate reader. MTT assays were repeated 3 times for each drug application and untreated cells were used as reference. The GI50 values, drug concentrations lethal to 50% of the cells, were calculated from the obtained dose response curves.
(Tetrazolium assays rely on reduction of a dye to a coloured formazan, in cell work by metabolically active cells.)

For assay [2], the system named is HT (diffuse large B-cell lymphoma, subtype—germinal center B-cell). The experiment in a line: MTT cytotoxicity assay, HT lymphoma cell line. As to conditions: Homo sapiens, 72 h, HT cells, three days, read-out: Lymphoma cell lines GI50, HT.
Text: as §1, §2

In assay [3] the test system is OCI-LY2 (diffuse large B-cell lymphoma, subtype—germinal center B-cell). As to the kind of experiment: MTT cytotoxicity assay, OCI-LY2 lymphoma cell line. The conditions noted are these: 72 h, OCI-LY2 cells, three days, read-out: Lymphoma cell lines GI50, OCI-LY2.
Text: as §1, §2

On to `CCC(CO)Sc1nc(NCc2ccc(-c3ccccn3)cc2)c2[nH]nc(C(C)C)c2n1` (stereo not drawn) [Compound 4.5, 5-(1-Hydroxy-2-butyl)thio-3-isopropyl-7-[4-(2-pyridyl)benzyl]amino-1(2)H-pyrazolo[4,3-d]pyrimidin], for which the GI50 in assay [1] worked out at 119 nM; in assay [2] it was 255 nM; in assay [3], 181 nM.
Turning to `CC(O)CSc1nc(NCc2ccc(-c3ccccn3)cc2)c2[nH]nc(C(C)C)c2n1` (stereo not drawn) [Compound 4.3, 5-(2-Hydroxy-1-propyl)thio-3-isopropyl-7-[4-(2-pyridyl)benzyl]amino-1(2)H-pyrazolo[4,3-d]pyrimidine], the GI50 in assay [1] was 81 nM; in assay [2], 62 nM; in assay [3], 152 nM.
With `C=CCSc1nc(NCc2ccc(-c3ccccn3)cc2)c2[nH]nc(C(C)C)c2n1` [Compound 4.2, 5-(Prop-2-en-1-yl)thio-3-isopropyl-7-[4-(2-pyridyl)benzyl]amino-1(2)H-pyrazolo[4,3-d]pyrimidine], the GI50 is 923 nM in assay [1], 1000 nM in assay [2] and 858 nM in assay [3].
With `CC(C)c1n[nH]c2c(NCc3ccc(-c4ccccn4)cc3)nc(SCC(O)CN)nc12` (racemic) [Compound 4.23, 5-(R/S)-(3-Amino-2-hydroxy-1-propyl)thio-3-isopropyl-7-[4-(2-pyridyl)benzyl]amino-1(2)H-pyrazolo[4,3-d]pyrimidine], the GI50 was 64 nM in assay [1], 55 nM in assay [2] and 55 nM in assay [3].
Turning to `CC(C)c1n[nH]c2c(NCc3ccc(-c4ccccn4)cc3)nc(SCCC(N)=O)nc12` [Compound 4.6, 5-(2-Carbamoyl-1-ethyl)thio-3-isopropyl-7-[4-(2-pyridyl)benzyl]amino-1(2)H-pyrazolo[4,3-d]pyrimidine], the results for the GI50 in assay [1], in assay [2] and in assay [3] were 81 nM, 120 nM and 84 nM, respectively.
With `CC(C)c1n[nH]c2c(NCc3ccc(-c4ccccn4)cc3)nc(SCCn3ccnc3)nc12` [Compound 4.26, 5-[2-(1-Imidazolyl)-1-ethyl]thio-3-isopropyl-7-[4-(2-pyridyl)benzyl]amino-1(2)H-pyrazolo[4,3-d]pyrimidine], the GI50 in assay [1] came out at 135 nM; in assay [2] it was 155 nM; in assay [3], 145 nM.
In the case of `CC(=O)NCCSc1nc(NCc2ccc(-c3ccccn3)cc2)c2[nH]nc(C(C)C)c2n1` [Compound 4.12, 5-(2-Acetylamino-1-ethyl)thio-3-isopropyl-7-[4-(2-pyridyl)benzyl]amino-1(2)H-pyrazolo[4,3-d]pyrimidine], the GI50 was determined as 42 nM in assay [1], 71 nM in assay [2] and 54 nM in assay [3].
As for `CC(C)c1n[nH]c2c(NCc3ccc(-c4ccccn4)cc3)nc(SCC3CNC(=O)O3)nc12` (stereo not drawn) [Compound 4.28, 5-[(Oxazolidin-2-on-5-yl)methyl]thio-3-isopropyl-7-[4-(2-pyridyl)benzyl]amino-1(2)H-pyrazolo[4,3-d]pyrimidine], the GI50 in assay [1] turned out to be 69 nM; in assay [2] it was 80 nM; in assay [3] it was 53 nM.
The matching figures for `CC(C)c1n[nH]c2c(NCc3ccc(-c4ccccn4)cc3)nc(SCCCO)nc12` [Compound 4.8, 5-(3-Hydroxy-1-propyl)thio-3-isopropyl-7-[4-(2-pyridyl)benzyl]amino-1(2)H-pyrazolo[4,3-d]pyrimidine]: 89 nM, 109 nM and 102 nM.
With `CC(C)c1n[nH]c2c(NCc3ccc(-c4ccccn4)cc3)nc(SC3CCCCC3N)nc12` (stereo not drawn) [Compound 4.31, 5-(2-Aminocyclohexyl)thio-3-isopropyl-7-[4-(2-pyridyl)benzyl]amino-1(2)H-pyrazolo[4,3-d]pyrimidine], the GI50 was determined as 157 nM in assay [1], 139 nM in assay [2] and 136 nM in assay [3].
With `CNCCSc1nc(NCc2ccc(-c3ccccn3)cc2)c2[nH]nc(C(C)C)c2n1` [Compound 4.34, 5-(3-Methylamino-1-ethyl)thio-3-isopropyl-7-[4-(2-pyridyl)benzyl]amino-1(2)H-pyrazolo[4,3-d]pyrimidine], the GI50 in assay [1] stood at 40 nM; in assay [2], 56 nM; in assay [3] it was 92 nM.
The matching figures for `CC(C)c1n[nH]c2c(NCc3ccc(-c4ccccn4)cc3)nc(SCC(O)CN3CCOCC3)nc12` (stereo not drawn) [Compound 4.24]: 243 nM, 200 nM and 200 nM.
The matching figures for `CC(C)c1n[nH]c2c(NCc3ccc(-c4ccccn4)cc3)nc(SCCNC(=N)N)nc12` [Compound 4.10, 5-(2-Guanidino-1-ethyl)thio-3-isopropyl-7-[4-(2-pyridyl)benzyl]amino-1(2)H-pyrazolo[4,3-d]pyrimidine]: 390 nM, 390 nM and 812 nM.
With `COCSc1nc(NCc2ccc(-c3ccccn3)cc2)c2[nH]nc(C(C)C)c2n1` [Compound 4.33, 5-(Methoxymethyl)thio-3-isopropyl-7-[4-(2-pyridyl)benzyl]amino-1(2)H-pyrazolo[4,3-d]pyrimidine], the results for the GI50 in assay [1], in assay [2] and in assay [3] were 243 nM, 340 nM and 285 nM, respectively.
Consider `CC(C)c1n[nH]c2c(NCc3ccc(-c4ccccn4)cc3)nc(SCCN(C)C)nc12` [Compound 4.19], for which the GI50 in assay [1] came to 93 nM; in assay [2], 54 nM; in assay [3] it was 61 nM.
For `CC(C)c1n[nH]c2c(NCc3ccc(-c4ccccn4)cc3)nc(SCC(N)=O)nc12` [Compound 4.7, 5-(Carbamoylmethyl)thio-3-isopropyl-7-[4-(2-pyridyl)benzyl]amino-1(2)H-pyrazolo[4,3-d]pyrimidine] the same measures were 197 nM, 192 nM and 163 nM.
On to `CC(C)c1n[nH]c2c(NCc3ccc(-c4ccccn4)cc3)nc(SCCO)nc12` [Compound 4.1, 5-(2-Hydroxy-1-ethyl)thio-3-isopropyl-7-[4-(2-pyridyl)benzyl]amino-1(2)H-pyrazolo[4,3-d]pyrimidine], for which the GI50 turned out to be 40 nM in assay [1], 48 nM in assay [2] and 50 nM in assay [3].
Regarding `CC(C)c1n[nH]c2c(NCc3ccc(-c4ccccn4)cc3)nc(SCCNC(N)=O)nc12` [Compound 4.11, 5-(2-Ureido-1-ethyl)thio-3-isopropyl-7-[4-(2-pyridyl)benzyl]amino-1(2)H-pyrazolo[4,3-d]pyrimidine], the figures for the GI50 in assay [1], in assay [2] and in assay [3] were 136 nM, 240 nM and 198 nM, respectively.
As for `CC(C)c1n[nH]c2c(NCc3ccc(-c4ccccn4)cc3)nc(SCCCN(C)C)nc12` [Compound 4.20, 5[3-(Dimethylamino)-1-propyl]thio-3-isopropyl-7-[4-(2-pyridyl)benzyl]amino-1(2)H-pyrazolo[4,3-d]pyrimidine], the figures for the GI50 in assay [1], in assay [2] and in assay [3] were 76 nM, 105 nM and 109 nM, respectively.
For `CC(C)c1n[nH]c2c(NCc3ccc(-c4ccccn4)cc3)nc(SCC(C)(C)N)nc12` [Compound 4.13, 5-(2-Amino-2-methyl-1-propyl)thio-3-isopropyl-7-[4-(2-pyridyl)benzyl]amino-1(2)H-pyrazolo[4,3-d]pyrimidin] the same measures were 64 nM, 85 nM and 100 nM.

For orientation: GI50 means the concentration giving 50% growth inhibition.
